{"source": "patent US20150018403A1", "about": "“FLUORENE-AMIDE COMPOUNDS AND PHARMACEUTICAL USE THEREOF” (JAPAN TOBACCO INC., priority 2013, published 2015)", "key": {"[1]": {"assay": "Metabolic stability test in rat liver microsome", "format": "in vitro ADME"}, "human PDHK2 (hPDHK2)": {"target": "T1, human PDHK2 (hPDHK2) (Homo sapiens, UniProt Q15119)", "T1 construct": "made in house; host or cells: Escherichia coli BL21(DE3), pET17b vector", "assay": "Inhibitory action of PDHK2 activity in vitro (residual PDH activity after kinase reaction)", "format": "biochemical", "details": "PDH/hPDHK2 complex, 45 min kinase reaction at room temperature; read-out: hPDHK2 IC50", "protocol": "The inhibitory action of PDHK activity was assessed indirectly by measuring the residual PDH activity after kinase reaction in the presence of a test compound.\nIn the case of human PDHK2 (hPDHK2, Genbank Accession No. BC040478.1), modified hPDHK2 cDNA wherein FLAG-Tag sequence was added to the N terminus of hPDHK2 cDNA clone (pReceiver-M01/PDK2-GeneCopoeia) was prepared by PCR and cloned into a vector (pET17b-Novagen). The recombinant construct was transformed into Escherichia coli (DH5α-TOYOBO). The recombinant clones were identified, and plasmid DNA was isolated and subjected to the DNA sequence analysis. One clone which had the expected nucleic acid sequence was selected for expression work.\nFor expression of hPDHK2 activity, Escherichia coli strain BL21(DE3) cells (Novagen) were transformed with the pET17b vector containing modified hPDHK2 cDNA. The Escherichia coli were grown to an optical density 0.6 ([…]) at 30° C. Protein expression was induced by the addition of 500 μmol/L isopropyl-β-thiogalactopyranoside. The Escherichia coli were cultured at 30° C. for 5 hr and harvested by centrifugation. Resuspension of the Escherichia coli paste was disrupted by a microfluidizer. FLAG-Tagged protein was purified using FLAG affinity gel. The gel was washed with 20 mmol/L HEPES-NaOH, 500 mmol/L sodium chloride, 1% ethylene glycol, and 0.1% Pluronic F-68 (pH 8.0), and the binding protein was eluted with 20 mmol/L HEPES-NaOH, 100 μg/mL FLAG peptide, 500 mmol/L sodium chloride, 1% ethylene glycol, and 0.1% Pluronic F-68 (pH 8.0). The eluted fractions containing FLAG-Tagged protein were pooled, dialyzed against 20 mmol/L HEPES-NaOH, 150 mmol/L sodium chloride, 0.5 mmol/L EDTA, 1% ethylene glycol, and 0.1% Pluronic F-68 (pH 8.0), and preserved at −80° C.\n0.05 U/mL PDH and 0.8 μg/mL hPDHK2 were mixed in a buffer (50 mmol/L 3-morpholinopropanesulfonic acid (pH 7.0), 20 mmol/L dipotassium hydrogen phosphate, 60 mmol/L potassium chloride, 2 mmol/L magnesium chloride, 0.4 mmol/L EDTA, and 0.2% Pluronic F-68, 2 mmol/L dithiothreitol), and the mixture was incubated at 4° C. overnight to obtain a PDH/hPDHK2 complex. The test compounds were diluted with DMSO. […] DMSO (1.5 μL) was added to control wells instead of the test compound. […] The mixture was incubated at room temperature for 90 min, and the residual PDH activity was measured. The absorbance at 340 nm before and after PDH reaction was measured using a microplate reader to detect NADH produced by the PDH reaction. The hPDHK2 inhibition rate (%) of the test compound was calculated from the formula [{(PDH activity of test compound−PDH activity of control)/PDH activity of blank−PDH activity of control)}×100]."}, "[2]": {"assay": "Metabolic stability test in human liver microsome", "format": "in vitro ADME", "details": "37° C., 5 μM", "protocol": "Human liver microsome (manufactured by Xenotech, H0620, final concentration (after dilution), 0.2 mg protein/mL) was suspended in 100 mM potassium phosphate buffer (pH 7.4, containing β-nicotinamide adenine dinucleotide phosphate: 1.3 mM, D-glucose-6-phosphate: 3.3 mM, magnesium chloride: 3.3 mM, glucose-6-phosphate dehydrogenase: 0.45 U/mL), and further mixed with a test compound dissolved in MeCN/DMSO (95/5) (final concentration 5 μM). The mixture was incubated at 37° C. for 10 min and 60 min, acetonitrile containing formic acid (final concentration 0.1%) was added, and the mixture was centrifuged. The test compound (unmodified) in the supernatant was measured by high performance liquid chromatography/mass spectrometry (LC/MS) (manufactured by Waters, LC: Acquity UPLC, MS:SQ Detector or TQ Detector). The residual ratio (%) was calculated from the obtained measurement value."}}}
{"smiles": "Cn1cc(-c2cc(OCC(C)(C)O)cc3c2-c2ccccc2[C@]3(O)C(F)(F)F)cn1", "note": "[compound (B), (9R)-2-(2-Hydroxy-2-methylpropoxy)-4-(1-methyl-1H-pyrazol-4-yl)-9-(trifluoromethyl)-9H-fluoren-9-ol, reference compound]", "values": [{"measurement": "stability in liver microsome (residual ratio %)", "setting": "[1]; 10 min", "result": 101.1, "unit": "%"}, {"measurement": "stability in liver microsome (residual ratio %)", "setting": "[1]; 60 min", "result": 92.1, "unit": "%"}, {"measurement": "IC50", "setting": "human PDHK2 (hPDHK2)", "result": 7.4, "unit": "nM"}, {"measurement": "stability in liver microsome (residual ratio %)", "setting": "[2]; 10 min", "result": 98.0, "unit": "%"}, {"measurement": "stability in liver microsome (residual ratio %)", "setting": "[2]; 60 min", "result": 88.2, "unit": "%"}]}
{"smiles": "C[C@H](O)COc1cc(-c2cnn(C(C)(C)C(N)=O)c2)c2c(c1)[C@@](O)(C(F)(F)F)c1ccccc1-2", "note": "[compound (2), 2-(4-{(9R)-9-hydroxy-2-[(2S)-2-hydroxypropoxy]-9-(trifluoromethyl)-9H-fluoren-4-yl}-1H-pyrazol-1-yl)-2-methylpropanamide]", "values": [{"measurement": "stability in liver microsome (residual ratio %)", "setting": "[1]; 10 min", "result": 98.3, "unit": "%"}, {"measurement": "stability in liver microsome (residual ratio %)", "setting": "[1]; 60 min", "result": 98.5, "unit": "%"}, {"measurement": "IC50", "setting": "human PDHK2 (hPDHK2)", "result": 4.9, "unit": "nM"}, {"measurement": "stability in liver microsome (residual ratio %)", "setting": "[2]; 10 min", "result": 98.9, "unit": "%"}, {"measurement": "stability in liver microsome (residual ratio %)", "setting": "[2]; 60 min", "result": 97.2, "unit": "%"}]}
